Data reported in ChEMBL document CHEMBL3871261, “Novel pyrazolo[3,4-d]pyrimidines as dual Src-Abl inhibitors active against mutant form of Abl and the leukemia K-562 cell line” (Eur J Med Chem, 2016).
pIC50: −log10 of the molar value.

Experiments:
[1] = Cytotoxicity against human K562 cells assessed as decrease in cell viability by MTT assay; assay type: functional
Homo sapiens = species: Homo sapiens; assay: Inhibition of recombinant PI3K (unknown origin) assessed as residual activity at 100 uM by [gamma-32P]ATP based assay
[2] = molecular target: Tyrosine-protein kinase ABL1 (Homo sapiens, UniProt P00519); assay: Inhibition of wild type recombinant human Abl using abtide as substrate by [gamma-32P]ATP based assay
Sequence of Tyrosine-protein kinase ABL1 (P00519 whole entry): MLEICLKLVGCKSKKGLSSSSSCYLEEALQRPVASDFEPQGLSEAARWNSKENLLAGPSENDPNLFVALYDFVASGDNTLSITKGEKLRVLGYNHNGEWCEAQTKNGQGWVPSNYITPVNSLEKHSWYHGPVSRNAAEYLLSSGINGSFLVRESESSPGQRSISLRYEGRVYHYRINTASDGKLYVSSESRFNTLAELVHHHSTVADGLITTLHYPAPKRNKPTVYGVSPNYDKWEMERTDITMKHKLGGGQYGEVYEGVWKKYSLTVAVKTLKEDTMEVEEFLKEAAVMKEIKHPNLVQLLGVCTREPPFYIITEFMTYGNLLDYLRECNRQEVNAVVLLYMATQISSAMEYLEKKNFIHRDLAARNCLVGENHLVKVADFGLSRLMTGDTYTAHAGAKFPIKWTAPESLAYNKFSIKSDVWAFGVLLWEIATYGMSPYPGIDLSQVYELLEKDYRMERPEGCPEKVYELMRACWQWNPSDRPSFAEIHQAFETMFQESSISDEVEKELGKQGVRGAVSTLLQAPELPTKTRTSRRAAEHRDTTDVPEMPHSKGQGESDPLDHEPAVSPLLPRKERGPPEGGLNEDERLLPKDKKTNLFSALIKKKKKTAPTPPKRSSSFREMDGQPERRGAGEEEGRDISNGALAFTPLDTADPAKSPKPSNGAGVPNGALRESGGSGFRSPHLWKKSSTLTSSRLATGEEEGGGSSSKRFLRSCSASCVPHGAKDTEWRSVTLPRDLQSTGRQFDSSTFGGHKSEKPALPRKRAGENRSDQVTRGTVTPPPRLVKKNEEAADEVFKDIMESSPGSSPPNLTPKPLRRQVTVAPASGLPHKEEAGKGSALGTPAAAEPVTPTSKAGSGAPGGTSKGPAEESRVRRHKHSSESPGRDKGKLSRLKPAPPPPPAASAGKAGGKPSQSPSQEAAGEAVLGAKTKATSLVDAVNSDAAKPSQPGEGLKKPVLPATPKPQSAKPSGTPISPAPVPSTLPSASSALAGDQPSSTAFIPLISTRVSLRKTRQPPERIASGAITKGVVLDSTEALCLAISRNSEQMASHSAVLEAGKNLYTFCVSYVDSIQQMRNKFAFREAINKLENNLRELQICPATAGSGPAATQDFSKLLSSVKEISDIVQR

Compound	Activity (Homo sapiens)	pIC50 [2]	CC50 [1]
NNc1nc2c(cnn2-c2ccccc2)c(=O)n1-c1ccccc1			2370 nM
O=c1c2cnn(-c3ccccc3)c2n2c(-c3ccccc3)nnc2n1-c1ccccc1	82%		920 nM
O=c1c2cnn(-c3ccccc3)c2n2c(Nc3ccccc3)nnc2n1-c1ccccc1		3.82	4920 nM
Cc1nc(Nc2ncc(C(=O)Nc3c(C)cccc3Cl)s2)cc(N2CCN(CCO)CC2)n1 [DASATINIB]			250 nM
O=C(NNc1nc2c(cnn2-c2ccccc2)c(=O)n1-c1ccccc1)c1ccc(Cl)cc1			860 nM

Second part, led by results:

Activity (Homo sapiens)	pIC50 [2]	Compound	CC50 [1]
100%		O=C(NNc1nc2c(cnn2-c2ccccc2)c(=O)n1-c1ccccc1)c1ccccc1	70 nM
80%		COc1ccc(C(=O)NNc2nc3c(cnn3-c3ccccc3)c(=O)n2-c2ccccc2)cc1	50 nM
90%		COc1ccc(-c2nnc3n(-c4ccccc4)c(=O)c4cnn(-c5ccccc5)c4n23)cc1	1060 nM
	3.96	O=c1c2cnn(-c3ccccc3)c2nc(N/N=C/c2ccc(F)cc2)n1-c1ccccc1	4060 nM
